Data as given in patent US20060229438A1, “Monoclonal antibody derived peptide inhibitors for mycobacterial dna gyrase” (priority 2002, published 2006).

B1: scFv:GyrA: engineered single chain antibody fragment of MsGyrA:C3, monovalent 30 kDa polypeptide, Seq. ID #2, encoded by pVNUHMscFv (protein)
scFv: AQVKLQQSGAELVRPGASVKLSCKASGYSFTVYYIYWVKQRPGQALEWIGEINPSNGGTNFNEKFKTKATLTVDKSTSTVYMQLSSLTSEDSAVYYCTRWGLRRGFAYWGQGTTVTVSSSGGGSGGGGSGGGGSDIELTQSPKSMSMSVGERVTLSCKASENVGTHVSWYQQRPEESPKLLIYGASNRYTGVPDRFTGSGSATDFTLTISNVQAEDLADYHCGQTYSYPFTFGLGTKLEIKRAAAGAPVPYPDPLEPRAA

How the values were obtained:
[1] = target: DNA gyrase from ciprofloxacin resistant M. smegmatis mc^2155 strain (Mycolicibacterium smegmatis, UniProt A0QNE0+P48354); assay type: biochemical
[2] = test system: DNA gyrase from ofloxacin resistant clinical isolate of M. tuberculosis (ICC-222)

Molecule | susceptibility of the enzyme to ciprofloxacin [1] | IC50 ([1]; read-out: IC50 (no inhibition up to concentration)) | concentration that completely inhibited DNA gyrase [2]
O=C(O)c1cn(C2CC2)c2cc(N3CCNCC3)c(F)cc2c1=O [ciprofloxacin, reference compound] | showed resistance | > 1210 µM | –
B1 | – | – | 10 nM
